Here are results for 21 compounds from patent US8927531B2, “Indanyloxydihydrobenzofuranylacetic acids” (Boehringer Ingelheim International GmbH, priority 2013, dated 2015).

Molecules are shown by their SMILES.

The target of the test is human GPR40 receptor (Homo sapiens, UniProt O14842). Put plainly: IP1 accumulation measurements using the IPOne assay system in 1321N1 cells stably expressing human GPR40 receptor. Format: cell-based. The following applies: stimulation 1 h at 37° C. Here is the method: IP1 accumulation measurements using the IPOne assay system—1321N1 cells stably expressing human GPR40 receptor (Euroscreen, Belgium) are seeded 24 h before the assay in white 384-well plates in culture medium containing 10% FCS, 1% Na-Pyruvate and 400 μg/mL G418. IP1 is assayed according to the manufacturer's description (Cisbio Bioassays, France). In brief, the assay is started by substitution of the culture medium by stimulation buffer (Hepes 10 mM, CaCl2 1 mM, MgCl2 0.5 mM, KCl 4.2 mM, NaCl 146 mM, glucose 5.5 mM and LiCl 50 mM, pH 7.4). Cells are stimulated for 1 h at 37° C., 5% CO2 by addition of the compounds that are diluted in stimulation buffer containing LiCl. Assays are stopped by adding HTRF-conjugates (IP1-d2 and Anti-IP1 cryptate Tb) and lysis buffer, provided by the manufacturer. After an incubation time of 1 h at room temperature plates are measured using an EnVision™, Perkin Elmer. The obtained fluorescence ratios at 665/615 […] are then used to calculate the pEC50 values using Assay Explorer 3.3 Software (Accelrys, Inc.) by interpolation using an IP1 reference curve and subsequent sigmoidal curve fitting allowing for a variable hill slope.
Chain of human GPR40 receptor (O14842 whole entry): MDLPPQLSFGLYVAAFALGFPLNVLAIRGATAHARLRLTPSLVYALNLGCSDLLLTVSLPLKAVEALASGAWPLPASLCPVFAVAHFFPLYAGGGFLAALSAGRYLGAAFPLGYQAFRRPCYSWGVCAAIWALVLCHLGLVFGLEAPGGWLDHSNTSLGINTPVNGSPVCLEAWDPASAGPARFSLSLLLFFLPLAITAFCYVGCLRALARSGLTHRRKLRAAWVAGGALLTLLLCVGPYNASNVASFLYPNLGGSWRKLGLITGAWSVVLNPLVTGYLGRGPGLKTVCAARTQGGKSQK
By EC50 is commonly meant the concentration that produces a half-maximal response. Lower therefore signals a more potent agent. Consider `CC(C)OC(=O)N1CCN(Cc2c(C(F)(F)F)ccc3c2CC[C@H]3Oc2ccc3c(c2)OC[C@H]3CC(=O)O)CC1` [Example 22, {(S)-6-[(R)-4-(4-Isopropoxycarbonyl-piperazin-1-ylmethyl)-5-trifluoromethyl-indan-1-yloxy]-2,3-dihydro-benzofuran-3-yl}-acetic acid], for which the EC50 came out at 14 nM.

The compound `C[C@@H]1CN(Cc2c(C(F)(F)F)ccc3c2CC[C@H]3Oc2ccc3c(c2)OC[C@H]3CC(=O)O)C[C@H](C)O1` [Example 18, {(S)-6-[(R)-4-(cis-2,6-Dimethyl-morpholin-4-ylmethyl)-5-trifluoromethyl-indan-1-yloxy]-2,3-dihydro-benzofuran-3-yl}-acetic acid] came in with an EC50 of 11 nM.

`O=C(O)C[C@@H]1COc2cc(O[C@@H]3CCc4c3ccc(C(F)(F)F)c4CN3CCc4ccsc4C3)ccc21` [Example 32, {(S)-6-[(R)-4-(4,7-Dihydro-thieno[2,3-c]pyridin-6-ylmethyl)-5-trifluoromethyl-indan-1-yloxy]-2,3-dihydro-benzofuran-3-yl}-acetic acid] came in with an EC50 of 2 nM.

Consider `COC(=O)N1CCN(Cc2c(C(F)(F)F)ccc3c2CC[C@H]3Oc2ccc3c(c2)OC[C@H]3CC(=O)O)CC1` [Example 17, {(S)-6-[(R)-4-(4-Methoxycarbonyl-piperazin-1-ylmethyl)-5-trifluoromethyl-indan-1-yloxy]-2,3-dihydro-benzofuran-3-yl}-acetic acid], for which it took 4 nM to reach a half-maximal effect (EC50).

Regarding `Cc1nc2c(s1)CN(Cc1c(C(F)(F)F)ccc3c1CC[C@H]3Oc1ccc3c(c1)OC[C@H]3CC(=O)O)CC2` [Example 6, {(S)-6-[(R)-4-(2-Methyl-4,5,6,7-tetrahydro-thiazolo[5,4-c]pyridin-5-ylmethyl)-5-trifluoromethyl-indan-1-yloxy]-2,3-dihydro-benzofuran-3-yl}-acetic acid], the midpoint of the response, the EC50, lay at 2 nM.

Turning to `O=C(O)C[C@@H]1COc2cc(O[C@@H]3CCc4c3ccc(C(F)(F)F)c4CN3CCn4nccc4C3)ccc21` [Example 33, {(S)-6-[(R)-4-(6,7-Dihydro-pyrazolo[1,5-a]pyrazin-5-ylmethyl)-5-trifluoromethyl-indan-1-yloxy]-2,3-dihydro-benzofuran-3-yl}-acetic acid], the EC50 was found to be 2 nM.

With `O=C(O)C[C@@H]1COc2cc(O[C@@H]3CCc4c3ccc(C(F)(F)F)c4CN3CCc4ccccc4C3)ccc21` [Example 29, {(S)-6-[(R)-4-(3,4-Dihydro-isoquinolin-2-ylmethyl)-5-trifluoromethyl-indan-1-yloxy]-2,3-dihydro-benzofuran-3-yl}-acetic acid], the 50% effective concentration (EC50) turned out to be 3 nM.

`CCOC(=O)N1CCN(Cc2c(C(F)(F)F)ccc3c2CC[C@H]3Oc2ccc3c(c2)OC[C@H]3CC(=O)O)CC1` [Example 20, {(S)-6-[(R)-4-(4-Ethoxycarbonyl-piperazin-1-ylmethyl)-5-trifluoromethyl-indan-1-yloxy]-2,3-dihydro-benzofuran-3-yl}-acetic acid] came in with an EC50 of 9 nM.

Compound `O=C(O)C[C@@H]1COc2cc(O[C@@H]3CCc4c3ccc(C(F)(F)F)c4CN3CC4CC4C3)ccc21` (stereo partly drawn) [Example 12, {(S)-6-[(R)-4-(3-Aza-bicyclo[3.1.0]hex-3-ylmethyl)-5-trifluoromethyl-indan-1-yloxy]-2,3-dihydro-benzofuran-3-yl}-acetic acid] gave an EC50 of 20 nM.

`O=C(O)C[C@@H]1COc2cc(O[C@@H]3CCc4c3ccc(C(F)(F)F)c4CN3C4CCCC3CC4)ccc21` [Example 25, {(S)-6-[(R)-4-(8-Aza-bicyclo[3.2.1]oct-8-ylmethyl)-5-trifluoromethyl-indan-1-yloxy]-2,3-dihydro-benzofuran-3-yl}-acetic acid] gave an EC50 of 15 nM.

In turn, `CCC(=O)N1CCN(Cc2c(C(F)(F)F)ccc3c2CC[C@H]3Oc2ccc3c(c2)OC[C@H]3CC(=O)O)CC1` [Example 21, {(S)-6-[(R)-4-(4-Propionyl-piperazin-1-ylmethyl)-5-trifluoromethyl-indan-1-yloxy]-2,3-dihydro-benzofuran-3-yl}-acetic acid] yielded a concentration for a half-maximal effect (EC50) of 12 nM.

`COC1CCN(Cc2c(C(F)(F)F)ccc3c2CC[C@H]3Oc2ccc3c(c2)OC[C@H]3CC(=O)O)CC1` [Example 10, {(S)-6-[(R)-4-(4-Methoxy-piperidin-1-ylmethyl)-5-trifluoromethyl-indan-1-yloxy]-2,3-dihydro-benzofuran-3-yl}-acetic acid] displayed an EC50 of 5 nM.

Regarding `O=C(O)C[C@@H]1COc2cc(O[C@@H]3CCc4c3ccc(C(F)(F)F)c4CN3CCC4(CC3)CC4)ccc21` [Example 8, {(S)-6-[(R)-4-(6-Aza-spiro[2.5]oct-6-ylmethyl)-5-trifluoromethyl-indan-1-yloxy]-2,3-dihydro-benzofuran-3-yl}-acetic acid], the response was half-maximal at 5 nM (EC50).

`O=C(O)C[C@@H]1COc2cc(O[C@@H]3CCc4c3ccc(C(F)(F)F)c4CN3CC4CCC(C3)O4)ccc21` [Example 24, {(S)-6-[(R)-4-(8-Oxa-3-aza-bicyclo[3.2.1]oct-3-ylmethyl)-5-trifluoromethyl-indan-1-yloxy]-2,3-dihydro-benzofuran-3-yl}-acetic acid] gave a half-maximal effective concentration (EC50) of 14 nM.

Compound `O=C(O)C[C@@H]1COc2cc(O[C@@H]3CCc4c3ccc(C(F)(F)F)c4CN3CCSCC3)ccc21` [Example 3, {(S)-6-[(R)-4-Thiomorpholin-4-ylmethyl-5-trifluoromethyl-indan-1-yloxy]-2,3-dihydro-benzofuran-3-yl}-acetic acid] came in with an EC50 of 3 nM.

Take `O=C(O)C[C@@H]1COc2cc(O[C@@H]3CCc4c3ccc(C(F)(F)F)c4CN3CCC(F)(F)CC3)ccc21` [Example 7, {(S)-6-[(R)-4-(4,4-Difluoro-piperidin-1-ylmethyl)-5-trifluoromethyl-indan-1-yloxy]-2,3-dihydro-benzofuran-3-yl}-acetic acid]: the EC50 was 3 nM.

In the case of `O=C(O)C[C@@H]1COc2cc(O[C@@H]3CCc4c3ccc(C(F)(F)F)c4CN3CCC(CO)CC3)ccc21` [Example 13, {(S)-6-[(R)-4-(4-Hydroxymethyl-piperidin-1-ylmethyl)-5-trifluoromethyl-indan-1-yloxy]-2,3-dihydro-benzofuran-3-yl}-acetic acid], the EC50 worked out at 9 nM.

`O=C(O)C[C@@H]1COc2cc(O[C@@H]3CCc4c3ccc(C(F)(F)F)c4CN3CCCC3)ccc21` [Example 4, {(S)-6-[(R)-4-Pyrrolidin-1-ylmethyl-5-trifluoromethyl-indan-1-yloxy]-2,3-dihydro-benzofuran-3-yl}-acetic acid] showed an EC50 of 92 nM.

`O=C(O)C[C@@H]1COc2cc(O[C@@H]3CCc4c3ccc(C(F)(F)F)c4CN3CCc4ncccc4C3)ccc21` [Example 28, {(S)-6-[(R)-4-(7,8-Dihydro-[1,6]naphthyridin-6-ylmethyl)-5-trifluoromethyl-indan-1-yloxy]-2,3-dihydro-benzofuran-3-yl}-acetic acid] had an EC50 of 4 nM.

For the compound `CN1CCN(Cc2c(C(F)(F)F)ccc3c2CC[C@H]3Oc2ccc3c(c2)OC[C@H]3CC(=O)O)CC1=O` [Example 26, {(S)-6-[(R)-4-(4-Methyl-3-oxo-piperazin-1-ylmethyl)-5-trifluoromethyl-indan-1-yloxy]-2,3-dihydro-benzofuran-3-yl}-acetic acid], the EC50 was 26 nM.

For the compound `O=C(O)C[C@@H]1COc2cc(O[C@@H]3CCc4c3ccc(C(F)(F)F)c4CN3CCOCC3)ccc21` [Example 1, {(S)-6-[(R)-4-Morpholin-4-ylmethyl-5-trifluoromethyl-indan-1-yloxy]-2,3-dihydro-benzofuran-3-yl}-acetic acid], the EC50 turned out to be 3 nM.
